Laboratory results reported in paper PMC3602187, “From Design to Screening: A New Antimicrobial Peptide Discovery Pipeline” (PLoS ONE, 2013).
Where a SMILES comes first, the peptide text is derived from it.

tested on: Listeria innocua 33090; test: colony overlay assay of peptide-secreting E. coli clones (library screening and re-test); type: cell-based; design: key: higher activity group (H); equal activity group (E); lower activity group (L); conditions: library screening; selected colonies pooled by zone size; peptides identified by 454 sequencing, full-length sequences with minimum 20 reads
Procedure, shortened: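 Pln-423 mutant library expressed periplasmically in leaky E. coli JE5505 (pFLAG-CTS); colonies grown 24 h at 37°C, then overlaid with TSB soft agar containing 1 mM IPTG and L. innocua ATCC 33090 (OD600 = 0.03) and incubated overnight at 30°C. Activity scored by inhibition-zone size versus wild-type Pln-423; hits re-tested after 4 h regrowth.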

Compound | activity group by size of inhibition zone compared to wild-type Pln-423
KYYGNGVTCGKHSCSVNWGQAFVCSVSHLANFGHGKC* [Pep-1_34] | L and E
KYYGNGVTCGKHSCSVNWGQAFVCSVSHLANFGHGTC* [Pep-2_3699] | E and H
KYYGNGVTCGKHSCSVNWGQAFWCSVSHLANFGHGKC* [Pep-1_36] | L
KYYGNGVTCGKHSCSVNWGQAFWCSVSKLANFGHGKC* [Pep-2_3865] | L
KYYGNGVTCGKHSCSVNWGQAFYCSVSHLANFGHGKC* [GROUP L-UM-29] | L
KYYGNGVTCGKHSCSVNWGQAGSCSVSRLANFGHGKC* [Pep-2_6539] | H
KYYGNGVTCGKHSCSVNWGQAGSCVVSHLANFGHGKC* [Pep-2_4919] | L
KYYGNGVTCGKHSCSVNWGQAIVCSVSHLANFGHGKC* [Pep-2_3622] | L
KYYGNGVTCGKHSCSVNWGQALSCAVSHLANFGHGKC* [Pep-2_5026] | L
KYYGNGVTCGKHSCSVNWGQALSCSVTHLANFGHGKC* [GROUP L-UM-8] | L
KYYGNGVTCGKHSCSVNWGQAMSCSVSRLANFGHGKC* [Pep-2_6538] | E
KYYGNGVTCGKHSCSVNWGQAVSCSVHHLANFGHGKC* [GROUP E-UM-6] | E
KYYGNGVTCGKHSCSVNWGQAVSCSVSHLANFGHGKC* [Pep-1_28] | E
KYYGNGVTCGKHSCSVNWGQAYSCSVSHLANFGHGKC* [GROUP L-UM-21] | L
KYYGNGVTCGKHSCSVNWGQGFSCAVSHLANFGHGKC* [Pep-2_2447] | L
KYYGNGVTCGKHSCSVNWGQGFSCSVNHLANFGHGKC* [Pep-2_2457] | L
KYYGNGVTCGKHSCSVNWGQGFSCSVSHLANFGHGKC* [Pep-1_23] | L
KYYGNGVTCGKHSCSVNWGQSFSCSFSHLANFGHGKC* [Pep-2_5559] | L

Compound | activity group by size of inhibition zone compared to wild-type Pln-423
KYYGNGVTCGKHSCSVNWGQSFSCSVSHLANFGHGKC* [GROUP E-UM-5] | E
KYYGNGVTCGKHSCSVNWGQVFSCSVSHLANFGHGHC* [Pep-2_11716] | L
KYYGNGVTCGKHSCSVNWGQVFSCSVSHLANFGHGKC* [Pep-1_22] | L
KYYGNGVTCGKHSCSVNWGQWFSCSVSHLANFGMGKC* [Pep-2_10746] | L
KYYGNGVTCGKHSCSVNWGRAFSCSVAHLANFGHGKC* [Pep-2_6307] | L
KYYGNGVTCGKHSCSVNWGRAFSCSVSRLANFGHGKC* [Pep-2_6523] | L
KYYGNGVTCGKHSCSVNWGSAFSCSVSHLANFGEGSC* [GROUP L-UM-24] | L
KYYGNGVTCGKHSCSVNWGTAFSCSISHLANFGHGKC* [Pep-2_1588] | E
KYYGNGVTCGKHSCSVNWGTAFSCSVSYLANFGHGKC* [GROUP L-UM-14] | L
KYYGNGVTCGKHSCSVNWGVAFSCSVSHLANFGHGWC* [Pep-2_1758] | L
KYYGNGVTCGKHSCSVNWGVAFSCSVSHLANFGHGYC* [Pep-2_1755] | L
KYYGNGVTCGKHSCSVNWGWAFSCSVSHLANFGHGKC* [Pep-1_18] | L
KYYGNGVTCGKHSCSVNWNQAFYCSVSHLANFGHGKC* [Pep-2_921] | L
KYYGNGVTCGKHSCSVNYGQAFACSVSHLANFGHGKC* [Pep-2_257] | L
KYYGNGVTCGKHSCSVNYGQAFSCSVSHLANFGHGAC* [Pep-2_335] | E
KYYGNGVTCGKHSCSVNYGQAFSCSVWHLANFGHGKC* [Pep-2_282] | E
KYYGNGVTCGKHSCSVNYGQLFSCSVSHLANFGHGKC* [GROUP L-UM-22] | L
KYYGNGVTCGNYSCSVNWGQAFSCSVVHLAEFGHGKC* [GROUP L-UM-10] | L

tested on: Listeria innocua 33090; test: MIC determination / agar spot assay of synthetic peptides; type: cell-based; conditions: synthetic peptides
Procedure: Synthetic samples of wild-type Pln-423, two variants Pln-S23E and Pln-H28R/H34E from this study (Pln-4 and Pln-7 on Fig. 2), and another high-activity variant Pln-S27D/K36N (discovered during a pilot study, data not shown) were tested on agar plates at varying concentrations.
MICs were determined as previously described, [35]. Synthetic peptides were obtained from Peptide 2.0, Inc. (Chantilly, VA) and dissolved in 0.1% acetic acid/water solution at the final concentration of 2.5 mg/ml. Listeria innocua 33090 was grown in TSB until the turbidity of the culture match that of McFarland standard 0.5 (∼OD600 = 0.11) and diluted to final concentration of 5×10^5 cfu/ml in 20 ml TSB soft agar (1.2%) per plate. Two-fold serial dilutions (starting at 128 µg/ml) for each peptide was carried out in ultra-pure deionized water and 5 µl aliquots of each dilution were spotted on TSB plates. After the plates were incubated for 1 h at room temperature, they were placed at 37°C for overnight incubation. This experiment was performed in triplicate and the MIC was calculated as the lowest peptide concentration that formed a visible growth inhibition zone.

Compound | MIC fold lower than wild-type Pln-423 [fold]
CC(C)C[C@H](NC(=O)[C@H](CCCNC(=N)N)NC(=O)[C@H](CO)NC(=O)[C@@H](NC(=O)[C@H](CO)NC(=O)[C@H](CS)NC(=O)[C@H](CO)NC(=O)[C@H](Cc1ccccc1)NC(=O)[C@H](C)NC(=O)[C@H](CCC(N)=O)NC(=O)CNC(=O)[C@H](Cc1c[nH]c2ccccc12)NC(=O)[C@H](CC(N)=O)NC(=O)[C@@H](NC(=O)[C@H](CO)NC(=O)[C@H](CS)NC(=O)[C@H](CO)NC(=O)[C@H](Cc1c[nH]cn1)NC(=O)[C@H](CCCCN)NC(=O)CNC(=O)[C@H](CS)NC(=O)[C@@H](NC(=O)[C@@H](NC(=O)CNC(=O)[C@H](CC(N)=O)NC(=O)CNC(=O)[C@H](Cc1ccc(O)cc1)NC(=O)[C@H](Cc1ccc(O)cc1)NC(=O)[C@@H](N)CCCCN)C(C)C)[C@@H](C)O)C(C)C)C(C)C)C(=O)N[C@@H](C)C(=O)N[C@@H](CC(N)=O)C(=O)N[C@@H](Cc1ccccc1)C(=O)NCC(=O)N[C@@H](CCC(=O)O)C(=O)NCC(=O)N[C@@H](CCCCN)C(=O)N[C@@H](CS)C(=O)O [PLN-H28R/H34E] (H-KYYGNGVTCGKHSCSVNWGQAFSCSVSRLANFGEGKC-OH; N-terminus and C-terminus assumed) | 2
CC(C)C[C@H](NC(=O)[C@H](Cc1c[nH]cn1)NC(=O)[C@H](CC(=O)O)NC(=O)[C@@H](NC(=O)[C@H](CO)NC(=O)[C@H](CS)NC(=O)[C@H](CO)NC(=O)[C@H](Cc1ccccc1)NC(=O)[C@H](C)NC(=O)[C@H](CCC(N)=O)NC(=O)CNC(=O)[C@H](Cc1c[nH]c2ccccc12)NC(=O)[C@H](CC(N)=O)NC(=O)[C@@H](NC(=O)[C@H](CO)NC(=O)[C@H](CS)NC(=O)[C@H](CO)NC(=O)[C@H](Cc1c[nH]cn1)NC(=O)[C@H](CCCCN)NC(=O)CNC(=O)[C@H](CS)NC(=O)[C@@H](NC(=O)[C@@H](NC(=O)CNC(=O)[C@H](CC(N)=O)NC(=O)CNC(=O)[C@H](Cc1ccc(O)cc1)NC(=O)[C@H](Cc1ccc(O)cc1)NC(=O)[C@@H](N)CCCCN)C(C)C)[C@@H](C)O)C(C)C)C(C)C)C(=O)N[C@@H](C)C(=O)N[C@@H](CC(N)=O)C(=O)N[C@@H](Cc1ccccc1)C(=O)NCC(=O)N[C@@H](Cc1c[nH]cn1)C(=O)NCC(=O)N[C@@H](CC(N)=O)C(=O)N[C@@H](CS)C(=O)O [PLN-S27D/K36N] (H-KYYGNGVTCGKHSCSVNWGQAFSCSVDHLANFGHGNC-OH; N-terminus and C-terminus assumed) | 2
